Key:
[1] = tested on: Echinochloa oryzoides (Ard.) Fritsch.; test: Preemergence weed control under flooded paddy conditions, ECHORC (Watergrass (Calif.)); assay type: in vivo; settings: flooded paddy; also: meaning of each grade not given here
[2] = tested on: Cyperus serotinus, Rottb.; test: Preemergence weed control under flooded paddy conditions, CYPSE (Flatsedge); assay type: in vivo; also: meaning of each grade not given here
Cyperus iria = test: Preemergence weed control under flooded paddy conditions, CYPIR (Rice Flatsedge); assay type: in vivo; settings: flooded paddy; also: meaning of each grade not given here
[3] = tested on: Monochoria vaginalis, Presl.; test: Preemergence weed control under flooded paddy conditions, MOOVA (Monochoria); assay type: in vivo; settings: flooded paddy; also: meaning of each grade not given here
Sagittaria pygmaea, L. = test: Preemergence weed control under flooded paddy conditions, SAGPY (Arrowhead (Pygmaea)); assay type: in vivo; settings: flooded paddy; also: meaning of each grade not given here
[4] = tested on: Oryza sativa, (L.) Tebonnet; test: Rice tolerance to post-transplant applications under flooded paddy conditions (Example 187), ORYSAT (Rice, Tebonnet); as to herbicidal effect rating ORYSAT: meaning of each grade not given here
[5] = Rate 0.0320 kg/ha, preemergence, rated three to four weeks after treatment
[6] = Rate 0.0620 kg/ha, preemergence, rated three to four weeks after treatment
[7] = Rate 0.1250 kg/ha, preemergence, rated three to four weeks after treatment
[8] = Rate 0.2500 kg/ha, preemergence, rated three to four weeks after treatment
[9] = Rate 0.0320 kg/ha, rated three to four weeks after treatment
[10] = Rate 0.0620 kg/ha, rated three to four weeks after treatment
[11] = Rate 0.1250 kg/ha, rated three to four weeks after treatment
[12] = Rate 0.2500 kg/ha, rated three to four weeks after treatment
[13] = Rate 0.0320 kg/ha, preemergence weeds, rated three to four weeks after treatment
[14] = Rate 0.0620 kg/ha, preemergence weeds, rated three to four weeks after treatment
[15] = Rate 0.1250 kg/ha, preemergence weeds, rated three to four weeks after treatment
[16] = Rate 0.2500 kg/ha, preemergence weeds, rated three to four weeks after treatment
[17] = 0.0313 kg/ha, preemergence, rated three to four weeks after treatment
[18] = 0.0625 kg/ha, preemergence, rated three to four weeks after treatment
[19] = 0.1250 kg/ha, preemergence, rated three to four weeks after treatment
[20] = 0.2500 kg/ha, preemergence, rated three to four weeks after treatment
[21] = Rate 0.0320 kg/ha, preemergence, rated 3-4 weeks after treatment
[22] = Rate 0.0620 kg/ha, preemergence, rated 3-4 weeks after treatment
[23] = Rate 0.1250 kg/ha, preemergence, rated 3-4 weeks after treatment
[24] = Rate 0.2500 kg/ha, preemergence, rated 3-4 weeks after treatment
[25] = Rate 0.5000 kg/ha, preemergence, rated 3-4 weeks after treatment

Cn1c(C(F)(F)F)cc(=O)n(-c2ccc3snc(C(=O)NS(=O)(=O)c4ccc5ccccc5c4)c3c2)c1=O [Example 357, 1,2-Benzisothiazole-3-carboxamide, 5-[3,6-dihydro-3-methyl-2,6-dioxo-4-(trifluoromethyl)-1(2H)-pyrimidinyl]-N-(2-naphthylsulfonyl)-]
herbicidal effect rating, ECHORC [1, 5]: 4.0
herbicidal effect rating, ECHORC [1, 6]: 5.0
herbicidal effect rating, ECHORC [1, 7]: 5.0
herbicidal effect rating, ECHORC [1, 8]: 7.0
herbicidal effect rating, CYPSE [2, 5]: 0.0
herbicidal effect rating, CYPSE [2, 6]: 0.0
herbicidal effect rating, CYPSE [2, 7]: 0.0
herbicidal effect rating, CYPSE [2, 8]: 0.0
herbicidal effect rating, CYPIR (Cyperus iria; [5]): 0.0
herbicidal effect rating, CYPIR (Cyperus iria; [6]): 0.0
herbicidal effect rating, CYPIR (Cyperus iria; [7]): 2.0
herbicidal effect rating, CYPIR (Cyperus iria; [8]): 6.0
herbicidal effect rating, MOOVA [3, 5]: 9.0
herbicidal effect rating, MOOVA [3, 6]: 9.0
herbicidal effect rating, MOOVA [3, 7]: 9.0
herbicidal effect rating, MOOVA [3, 8]: 9.0
herbicidal effect rating, SAGPY (Sagittaria pygmaea, L.; [5]): 0.0
herbicidal effect rating, SAGPY (Sagittaria pygmaea, L.; [6]): 0.0
herbicidal effect rating, SAGPY (Sagittaria pygmaea, L.; [7]): 0.0
herbicidal effect rating, SAGPY (Sagittaria pygmaea, L.; [8]): 4.0
herbicidal effect rating ORYSAT [4, 9]: 2.0
herbicidal effect rating ORYSAT [4, 10]: 2.0
herbicidal effect rating ORYSAT [4, 11]: 2.0
herbicidal effect rating ORYSAT [4, 12]: 3.0

CN(O)C(=O)COc1ccccc1-c1nsc2ccc(-n3c(=O)cc(C(F)(F)F)n(C)c3=O)cc12 [Example 336, Acetohydroxamic acid, 2-{o-{5-[3,6-dihydro-3-methyl-2,6-dioxo-4-(trifluoromethyl)-1(2H)-pyrimidinyl]-1,2-benzisothiazol-3-yl}phenoxy}-N-methyl-]
herbicidal effect rating, ECHORC [1, 13]: 6.5
herbicidal effect rating, ECHORC [1, 14]: 9.0
herbicidal effect rating, ECHORC [1, 15]: 9.0
herbicidal effect rating, ECHORC [1, 16]: 9.0
herbicidal effect rating, CYPSE [2, 13]: 0.0
herbicidal effect rating, CYPSE [2, 14]: 0.0
herbicidal effect rating, CYPSE [2, 15]: 2.0
herbicidal effect rating, CYPSE [2, 16]: 3.0
herbicidal effect rating, CYPIR (Cyperus iria; [13]): 0.0
herbicidal effect rating, CYPIR (Cyperus iria; [14]): 1.0
herbicidal effect rating, CYPIR (Cyperus iria; [15]): 4.0
herbicidal effect rating, CYPIR (Cyperus iria; [16]): 9.0
herbicidal effect rating, MOOVA [3, 13]: 9.0
herbicidal effect rating, MOOVA [3, 14]: 9.0
herbicidal effect rating, MOOVA [3, 15]: 9.0
herbicidal effect rating, MOOVA [3, 16]: 9.0
herbicidal effect rating, SAGPY (Sagittaria pygmaea, L.; [13]): 0.0
herbicidal effect rating, SAGPY (Sagittaria pygmaea, L.; [14]): 0.0
herbicidal effect rating, SAGPY (Sagittaria pygmaea, L.; [15]): 1.0
herbicidal effect rating, SAGPY (Sagittaria pygmaea, L.; [16]): 9.0
herbicidal effect rating ORYSAT [4, 9]: 2.0
herbicidal effect rating ORYSAT [4, 10]: 4.5
herbicidal effect rating ORYSAT [4, 11]: 4.5
herbicidal effect rating ORYSAT [4, 12]: 9.0

Cc1ccc(OCC(=O)OCC#Cc2ccccc2)c(-c2nsc3ccc(-n4c(=O)cc(C(F)(F)F)n(C)c4=O)cc23)c1 [Example 73, 3-Phenyl-2-propynyl {{2-{5-[3,6-dihydro-3-methyl-2,6-dioxo-4-(trifluoromethyl)-1(2H)-pyrimidinyl]-1,2-benzisothiazol-3-yl}-p-tolyl}oxy}acetate]
herbicidal effect rating, ECHORC [1, 17]: 8.0
herbicidal effect rating, ECHORC [1, 18]: 6.5
herbicidal effect rating, ECHORC [1, 19]: 9.0
herbicidal effect rating, ECHORC [1, 20]: 9.0
herbicidal effect rating, CYPSE [2, 17]: 0.0
herbicidal effect rating, CYPSE [2, 18]: 0.0
herbicidal effect rating, CYPSE [2, 19]: 2.0
herbicidal effect rating, CYPSE [2, 20]: 9.0
herbicidal effect rating, CYPIR (Cyperus iria; [17]): 2.0
herbicidal effect rating, CYPIR (Cyperus iria; [18]): 6.0
herbicidal effect rating, CYPIR (Cyperus iria; [19]): 8.0
herbicidal effect rating, CYPIR (Cyperus iria; [20]): 8.0
herbicidal effect rating, MOOVA [3, 17]: 9.0
herbicidal effect rating, MOOVA [3, 18]: 9.0
herbicidal effect rating, MOOVA [3, 19]: 9.0
herbicidal effect rating, MOOVA [3, 20]: 9.0
herbicidal effect rating, SAGPY (Sagittaria pygmaea, L.; [17]): 0.0
herbicidal effect rating, SAGPY (Sagittaria pygmaea, L.; [18]): 0.0
herbicidal effect rating, SAGPY (Sagittaria pygmaea, L.; [19]): 0.0
herbicidal effect rating, SAGPY (Sagittaria pygmaea, L.; [20]): 2.0
herbicidal effect rating, ORYSAT (rice tolerance) ([4]; 0.0313 kg/ha, rated three to four weeks after treatment): 2.5
herbicidal effect rating, ORYSAT (rice tolerance) ([4]; 0.0625 kg/ha, rated three to four weeks after treatment): 3.0
herbicidal effect rating, ORYSAT (rice tolerance) ([4]; 0.1250 kg/ha, rated three to four weeks after treatment): 4.0
herbicidal effect rating, ORYSAT (rice tolerance) ([4]; 0.2500 kg/ha, rated three to four weeks after treatment): 6.0

Cn1c(C(F)(F)F)cc(=O)n(-c2ccc3snc(-c4ccccc4OCC(N)=O)c3c2)c1=O [Example 563, Acetamide, 2-{o-{5-[3,6-dihydro-3-methyl-2,6-dioxo-4-(trifluoromethyl)-1(2H)-pyrimidinyl]-1,2-benzisothiazol-3-yl}phenoxy}-]
herbicidal effect rating, ECHORC [1, 21]: 3.6
herbicidal effect rating, ECHORC [1, 22]: 5.1
herbicidal effect rating, ECHORC [1, 23]: 5.6
herbicidal effect rating, ECHORC [1, 24]: 9.0
herbicidal effect rating, ECHORC [1, 25]: 9.0
herbicidal effect rating, CYPSE [2, 21]: 0.0
herbicidal effect rating, CYPSE [2, 22]: 0.0
herbicidal effect rating, CYPSE [2, 23]: 0.0
herbicidal effect rating, CYPSE [2, 24]: 4.0
herbicidal effect rating, CYPSE [2, 25]: 0.0
herbicidal effect rating, CYPIR (Cyperus iria; [21]): 0.0
herbicidal effect rating, CYPIR (Cyperus iria; [22]): 2.0
herbicidal effect rating, CYPIR (Cyperus iria; [23]): 6.0
herbicidal effect rating, CYPIR (Cyperus iria; [24]): 6.0
herbicidal effect rating, CYPIR (Cyperus iria; [25]): 9.0
herbicidal effect rating, MOOVA [3, 21]: 8.0
herbicidal effect rating, MOOVA [3, 22]: 9.0
herbicidal effect rating, MOOVA [3, 23]: 9.0
herbicidal effect rating, MOOVA [3, 24]: 9.0
herbicidal effect rating, MOOVA [3, 25]: 9.0
herbicidal effect rating, SAGPY (Sagittaria pygmaea, L.; [21]): 0.0
herbicidal effect rating, SAGPY (Sagittaria pygmaea, L.; [22]): 0.0
herbicidal effect rating, SAGPY (Sagittaria pygmaea, L.; [23]): 0.0
herbicidal effect rating, SAGPY (Sagittaria pygmaea, L.; [24]): 2.0
herbicidal effect rating, SAGPY (Sagittaria pygmaea, L.; [25]): 4.0
herbicidal effect rating ORYSAT ([4]; Rate 0.0320 kg/ha, rated 3-4 weeks after treatment): 4.0
herbicidal effect rating ORYSAT ([4]; Rate 0.0620 kg/ha, rated 3-4 weeks after treatment): 7.0
herbicidal effect rating ORYSAT ([4]; Rate 0.1250 kg/ha, rated 3-4 weeks after treatment): 7.0
herbicidal effect rating ORYSAT ([4]; Rate 0.2500 kg/ha, rated 3-4 weeks after treatment): 7.0
herbicidal effect rating ORYSAT ([4]; Rate 0.5000 kg/ha, rated 3-4 weeks after treatment): 4.0

Source: patent EP0908457B1, “3-(1,2-benzisothiazol- and isoxazol-5-Y1)-2,4(1H,3H)-pyrimidinedione or thione and 3-(1,2-benzisothiazol- and isoxazol-5-y1)-4(3H)-pyrimidinone or thione herbicidal agents” (BASF AKTIENGESELLSCHAFT, priority 1997, dated 1999)
